Test system: endogenous target monocytes in human PBMC
Assay: PBMC ex vivo monocyte depletion flow cytometry assay (Example 200)
Assay type: cell-based
Conditions: with anti-cotinine antibody (SEQ ID NO: 11/12), 18-24 hours, EC50 in molar, read-out: Ex Vivo Depletion Assay pEC50 (converted)
Experimental: A human PBMC (peripheral blood mononuclear cells) monocyte depletion flow cytometry assay was developed to screen compounds in a 384-well plate format. This assay incorporated endogenous natural killer cells to deplete endogenous target monocytes.
To screen compounds in the human PBMC monocyte depletion flow cytometry assay, 11-point dose-response curves were made from 1 mM stocks in neat DMSO by serially diluting an ARM compound of Formula (I) four-fold into a 384-well plate row-wise. These serially diluted compounds were then stamped into a flat bottom polypropylene 384-well plate (Greiner Bio-One) at 100 nL/well. Fifty microliters of 30 μg/mL anti-cotinine antibody having a heavy chain sequence of SEQ ID NO: 11 and a light chain sequence of SEQ ID NO: 12 (rabbit variable region with human IgG1 Fc domain containing a DE mutation (S239D/1332E)) that had been diluted in assay medium (RPMI 1640 (Gibco) containing 10% fetal bovine serum (Gibco), 1% Glutamax (Gibco) and 1% sodium pyruvate (Corning) was added to the wells of the plate. The plate was centrifuged for 1 min at 500 rpm (revolutions per minute) and then shaken for 5 min at room temperature. The plate was incubated for 15 minutes at 37° C./5% CO2.
Frozen PBMC cells (HemaCare BioResearch) were thawed and centrifuged at 1,200 rpm for 4 minutes. The cells were diluted to a cell density of 2×10^6 cells/mL in assay medium. Fifty microliters of the diluted cells were added to the wells of the plate. The plate was centrifuged for 1 min at 500 rpm and incubated for 18-24 hours at 37° C./5% CO2.
After 18-24 hours incubation, 2 μL of 6.25 μg human FC block (BD Pharmingen) that was diluted in assay medium was added to the wells of the plate. The plate was centrifuged for 1 minute at 500 rpm and then incubated at room temperature for 15 minutes. Five microliters of 750 nM Helix NP NIR (Biolegend) that had been diluted in assay medium was added to the wells of the plate. Nine microliters of antibody cocktail containing 1/5 diluted fluorescein isothiocyanate (FITC) labeled anti-CD45 antibody (Beckman Coulter), PC7 labeled anti-CD14 antibody (Beckman Coulter) and phyocoerythrin (PE) anti-CD4 antibody (Beckman Coulter) was then added to the wells of the plate. The plate was centrifuged for 1 min at 500 rpm and incubated for 30 minutes at 4-8° C. Samples from the plate were run on BD FACS Canto II flow cytometer and data was analyzed using FlowJo software.
ARMs compounds of Formula (I) of the invention were tested for the ability to deplete monocytes in the above assay in one or more experimental runs and the results are shown in Table 3 below. Potency of the compounds of the invention is reported as a pEC50 value. The pEC50 value is the negative log of the EC50 value, wherein the EC50 value is the half maximal effective concentration measured in molar (M). For compounds tested in more than one experimental run, the pEC50 value is reported as an average or as the individual values measured

| SMILES | EC50 [nM] |
| --- | --- |
| CC(C)N(C)[C@@H]1CC[C@H](N2CC[C@H](Nc3ncnc4ccc(C(F)(F)F)cc34)C2=O)[C@H](NC(=O)c2cnn(C3CCN(CCOCCOCCNC(=O)[C@H]4CC(=O)N(C)[C@@H]4c4cccnc4)CC3)c2)C1 [Example 92, N-((1R,2S,5R)-5-(Isopropyl(methyl)amino)-2-((S)-2-oxo-3-((6-(trifluoromethyl)quinazolin-4-yl)amino)pyrrolidin-1-yl)cyclohexyl)-1-(1-(2-(2-(2-((2S,3S)-1-methyl-5-oxo-2-(pyridin-3-yl)pyrrolidine-3-carboxamido)ethoxy)ethoxy)ethyl)piperidin-4-yl)-1H-pyrazole-4-carboxamide] | 25.1 |
| CC(C)N(C)[C@@H]1CC[C@H](N2CC[C@H](Nc3ncnc4ccc(C(F)(F)F)cc34)C2=O)[C@H](NC(=O)C2CCC3(CC2)CCN(CCOCCOCCNC(=O)[C@H]2CC(=O)N(C)[C@@H]2c2cccnc2)CC3)C1 [Example 93, N-((1R,2S,5R)-5-(Isopropyl(methyl)amino)-2-((S)-2-oxo-3-((6-(trifluoromethyl)quinazolin-4-yl)amino)pyrrolidin-1-yl)cyclohexyl)-3-(2-(2-(2-((2S,3S)-1-methyl-5-oxo-2-(pyridin-3-yl)pyrrolidine-3-carboxamido)ethoxy)ethoxy)ethyl)-3-azaspiro [5.5]undecane-9-carboxamide] | 126 |
| CC(C)N(C)[C@@H]1CC[C@H](N2CC[C@H](Nc3ncnc4ccc(C(F)(F)F)cc34)C2=O)[C@H](NC(=O)[C@H]2CC[C@@H](NC(=O)C3CCC4(CC3)CCN(C(=O)[C@H]3CC(=O)N(C)[C@@H]3c3cccnc3)CC4)CC2)C1 [Example 95, N-((1S,4R)-4-(((1R,2S,5R)-5-(Isopropyl(methyl)amino)-2-((S)-2-oxo-3-((6-(trifluoromethyl)quinazolin-4-yl)amino)pyrrolidin-1-yl)cyclohexyl)carbamoyl)cyclohexyl)-3-((2S,3S)-1-methyl-5-oxo-2-(pyridin-3-yl)pyrrolidine-3-carbonyl)-3-azaspiro[5.5]undecane-9-carboxamide] | 631 |
| CC(C)N(C)[C@@H]1CC[C@H](N2CC[C@H](Nc3ncnc4ccc(C(F)(F)F)cc34)C2=O)[C@H](NC(=O)[C@H]2CC[C@H](N3CCN(C(=O)CCOCCOCCNC(=O)[C@H]4CC(=O)N(C)[C@@H]4c4cccnc4)CC3)CC2)C1 [Example 96, (2S,3S)-N-(2-(2-(3-(4-((1R,4r)-4-(((1R,2S,5R)-5-(Isopropyl(methyl)amino)-2-((S)-2-oxo-3-((6-(trifluoromethyl)quinazolin-4-yl)amino)pyrrolidin-1-yl)cyclohexyl)carbamoyl)cyclohexyl)piperazin-1-yl)-3-oxopropoxy)ethoxy)ethyl)-1-methyl-5-oxo-2-(pyridin-3-yl)pyrrolidine-3-carboxamide] | 1 |
| CC(C)N(C)[C@@H]1CC[C@H](N2CC[C@H](Nc3ncnc4ccc(C(F)(F)F)cc34)C2=O)[C@H](NC(=O)[C@H]2CC[C@H](N3CCN(C4CC(CCNC(=O)[C@H]5CC(=O)N(C)[C@@H]5c5cccnc5)C4)CC3)CC2)C1 (stereo partly drawn) [Example 97, (2S,3S)-N-(2-(3-(4-((1R,4S)-4-(((1R,2S,5R)-5-(Isopropyl(methyl)amino)-2-((S)-2-oxo-3-((6-(trifluoromethyl)quinazolin-4-yl)amino)pyrrolidin-1-yl)cyclohexyl)carbamoyl)cyclohexyl)piperazin-1-yl)cyclobutyl)ethyl)-1-methyl-5-oxo-2-(pyridin-3-yl)pyrrolidine-3-carboxamide] | 0.0631 |
| CC(C)N(C)[C@@H]1CC[C@H](N2CC[C@H](Nc3ncnc4ccc(C(F)(F)F)cc34)C2=O)[C@H](NC(=O)[C@H]2CC[C@@H](NC(=O)CCOCCNC(=O)CCOCCCNC(=O)[C@H]3CC(=O)N(C)[C@@H]3c3cccnc3)CC2)C1 [Example 101, (2S,3S)-N-(3-(3-((2-(3-(((1S,4s)-4-(((1R,2S,5R)-5-(Isopropyl(methyl)amino)-2-((S)-2-oxo-3-((6-(trifluoromethyl)quinazolin-4-yl)amino)pyrrolidin-1-yl)cyclohexyl)carbamoyl)cyclohexyl)amino)-3-oxopropoxy)ethyl)amino)-3-oxopropoxy)propyl)-1-methyl-5-oxo-2-(pyridin-3-yl)pyrrolidine-3-carboxamide] | 0.631 |
| CN1C(=O)C[C@H](C(=O)NCCOCC(=O)NCCOCCC(=O)NCCOCCC(=O)N[C@@H]2C[C@H](NC(C)(C)C)CC[C@@H]2N2CC[C@H](Nc3ncnc4ccc(C(F)(F)F)cc34)C2=O)[C@H]1c1cccnc1 [Example 106, (2S,3S)-N-(19-(((1R,2S,5R)-5-(tert-Butylamino)-2-((S)-2-oxo-3-((6-(trifluoromethyl)quinazolin-4-yl)amino)pyrrolidin-1-yl)cyclohexyl)amino)-5,12,19-trioxo-3,9, 16-trioxa-6, 13-diazanonadecyl)-1-methyl-5-oxo-2-(pyridin-3-yl)pyrrolidine-3-carboxamide] | 0.794 |
| CC(C)N(C)[C@@H]1CC[C@H](N2CC[C@H](Nc3ncnc4ccc(C(F)(F)F)cc34)C2=O)[C@H](NC(=O)[C@H]2CC[C@H](NC(=O)CCO[C@H]3CC[C@@H](OCCNC(=O)[C@H]4CC(=O)N(C)[C@@H]4c4cccnc4)CC3)CC2)C1 [Example 114, (2S,3S)-N-(2-(((1S,4R)-4-(3-(((1R,4R)-4-(((1R,2S,5R)-5-(Isopropyl(methyl)amino)-2-((S)-2-oxo-3-((6-(trifluoromethyl)quinazolin-4-yl)amino)pyrrolidin-1-yl)cyclohexyl)carbamoyl)cyclohexyl)amino)-3-oxopropoxy)cyclohexyl)oxy)ethyl)-1-methyl-5-oxo-2-(pyridin-3-yl)pyrrolidine-3-carboxamide] | 2.51 |
| CC(C)N(C)[C@@H]1CC[C@H](N2CC[C@H](Nc3ncnc4ccc(C(F)(F)F)cc34)C2=O)[C@H](NC(=O)[C@H]2C[C@H](NC(=O)CCO[C@H]3CC[C@@H](OCCNC(=O)[C@H]4CC(=O)N(C)[C@@H]4c4cccnc4)CC3)C2)C1 [Example 116, (2S,3S)-N-(2-(((1S,4R)-4-(3-(((1R,3R)-3-(((1R,2S,5R)-5-(Isopropyl(methyl)amino)-2-((S)-2-oxo-3-((6-(trifluoromethyl)quinazolin-4-yl)amino)pyrrolidin-1-yl)cyclohexyl)carbamoyl)cyclobutyl)amino)-3-oxopropoxy)cyclohexyl)oxy)ethyl)-1-methyl-5-oxo-2-(pyridin-3-yl)pyrrolidine-3-carboxamide] | 0.0398 |
| CC(C)N(C)[C@@H]1CC[C@H](N2CC[C@H](Nc3ncnc4ccc(C(F)(F)F)cc34)C2=O)[C@H](NC(=O)[C@H]2C[C@H](NC(=O)CCO[C@H]3CC[C@H](OCCNC(=O)[C@H]4CC(=O)N(C)[C@@H]4c4cccnc4)CC3)C2)C1 [Example 117] | 3.98 |
| CC(C)N(C)[C@@H]1CC[C@H](N2CC[C@H](Nc3ncnc4ccc(C(F)(F)F)cc34)C2=O)[C@H](NC(=O)CCOCCOCCNC(=O)[C@@H]2CCCN2CCOCCNC(=O)[C@H]2CC(=O)N(C)[C@@H]2c2cccnc2)C1 [Example 118, (S)-N-(2-(2-(3-(((1R,2S,5R)-5-(Isopropyl(methyl)amino)-2-((S)-2-oxo-3-((6-(trifluoromethyl)quinazolin-4-yl)amino)pyrrolidin-1-yl)cyclohexyl)amino)-3-oxopropoxy)ethoxy)ethyl)-1-(2-(2-((2S,3S)-1-methyl-5-oxo-2-(pyridin-3-yl)pyrrolidine-3-carboxamido)ethoxy)ethyl)pyrrolidine-2-carboxamide] | 15.8 |
| CN1C(=O)C[C@H](C(=O)NCCOCCOCCC(=O)N[C@H]2CC[C@@H](C(=O)N[C@@H]3C[C@H](NC(C)(C)C)CC[C@@H]3N3CC[C@H](Nc4ncnc5ccc(C(F)(F)F)cc45)C3=O)CC2)[C@H]1c1cccnc1 [Example 120, (2S,3S)-N-(2-(2-(3-(((1S,4s)-4-(((1R,2S,5R)-5-(tert-Butylamino)-2-((S)-2-oxo-3-((6-(trifluoromethyl)quinazolin-4-yl)amino)pyrrolidin-1-yl)cyclohexyl)carbamoyl)cyclohexyl)amino)-3-oxopropoxy)ethoxy)ethyl)-1-methyl-5-oxo-2-(pyridin-3-yl)pyrrolidine-3-carboxamide] | 1.26 |
